From patent US6737383B1, “Herbicidal oxadiazolidines” (priority 1999, dated 2004) come the findings set out here.

The test system of one assay is crabgrass. Kind of assay: Test A crabgrass. Particulars: 0 to 10 scale where 0 is no effect and 10 is complete control. In kind it is in vivo, Digitaria spp. The procedure, abridged: (§1)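 Ratings came from visual comparison with untreated plants about eleven days after treatment, scored 0 for no effect through 10 for complete control. Both soil-drench preemergence and runoff-spray postemergence applications were made at the same time.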

A further assay deals with barnyardgrass. Kind of assay: Test A barnyardgrass. Type of assay: in vivo, Echinochloa crus-galli. Particulars: 0 to 10 scale where 0 is no effect and 10 is complete control. The procedure, abridged: as §1
Another assay has as its system Spanishneedles. Kind of assay: Test D Spanishneedles. In kind it is in vivo, Bidens bipinnata. Particulars: Preemergence, 0 to 100 scale. The procedure, abridged:
(§2)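 Values are visual plant-response ratings (0 no injury, 100 complete control) recorded 14 to 21 days after herbicide treatment, using a non-phytotoxic solvent mixture containing surfactant. Preemergence applications went to the surface of pots holding freshly sown seed in sandy loam.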

The test system of another assay is dallisgrass. Kind of assay: Test D dallisgrass. In kind it is in vivo, Paspalum dilatatum. Particulars: Preemergence, 0 to 100 scale. An excerpt:
(§3) Seeds, tubers, or plant parts of Alexandergrass (Brachiaria plantaginea), bermuda-grass (Cynodon dactylon), common pursiane (Portulaca oleracea), common ragweed (Ambrosia elatior), common groundsel (Senecio vulgaris), dallisgrass (Paspalum dilatatum), goosegrass (Eleusine indica), guineagrass (Panicum maximum), itchgrass (Rottboellia exaltata), Johnson grass (Sorghum halepense), large crabgrass (Digitaria sanguinalis), pitted morningglory (Ipomoea lacunosa), purple nutsedge (Cyperus rotundus), sandbur (Cenchrus echinatus), sourgrass (Trichachne insularis), Spanishneedles (Bidens bipinnata), surinam grass (Brachiaria decumbens) and tall mallow (Malva sylvestris) were planted into greenhouse pots of flats containing greenhouse planting medium. Plant species were grown in separate pots or individual compartments. Preemergence applications were made within one day of planting the seed or plant part.
(§4) Test chemicals were formulated in a non-phytotoxic solvent mixture which included a surfactant and applied preemergence to the surface of the pot containing seeds in a sandy loam soil. Untreated control pots and treated pots were placed in the greenhouse for growth and visually evaluated for injury 14 to 21 days after herbicide application. Plant response ratings, summarized in Table C, are based on a 0 to 100 scale where 0 is no injury and 100 is complete control. A dash (−) response means no test result.

The subject of assay [1] is surinam grass. Kind of assay: Test D surinam grass. In kind it is in vivo, Brachiaria decumbens. Particulars: Preemergence, 0 to 100 scale.
Excerpt: as §3, §4

Assay [2] relates to common pursiane. Kind of assay: Test D common purslane. In kind it is in vivo, Portulaca oleracea. Particulars: Preemergence, 0 to 100 scale. The essentials: as §2
Assay [3] relates to tall mallow. Kind of assay: Test D tall mallow. In kind it is in vivo, Malva sylvestris. Particulars: Preemergence, 0 to 100 scale.
Excerpt: as §3, §4

Assay [4] deals with surinam grass. Put plainly: Test D surinam grass. In kind it is in vivo, Brachiaria decumbens. Particulars: Postemergence, 0 to 100 scale.
Assay [5] concerns Green foxtail. Put plainly: Test D green foxtail. In kind it is in vivo. Particulars: Postemergence, 0 to 100 scale, 0 no injury, 100 complete control.
In assay [6] the test system is tall mallow. Put plainly: Test D tall mallow. In kind it is in vivo, Malva sylvestris. Particulars: Postemergence, 0 to 100 scale.
Assay [7] relates to Green foxtail. Put plainly: Test D green foxtail. Type of assay: in vivo. Particulars: Postemergence, 0 to 100 scale, 0 no injury, 100 complete control. The source holds these as a separate data set.
For assay [8], the system named is Green foxtail. Put plainly: Test D green foxtail. Type of assay: in vivo. Particulars: Postemergence, 0 to 100 scale, 0 no injury, 100 complete control. This is another data set of the same source.
Another assay relates to Johnson grass. Kind of assay: Test D Johnson grass. Particulars: Postemergence, 0 to 100 scale. In kind it is in vivo, Sorghum halepense.
The next assay concerns guineagrass. Kind of assay: Test D guineagrass. In kind it is in vivo, Panicum maximum. Particulars: Postemergence, 0 to 100 scale.
The test system of assay [9] is common pursiane. Put plainly: Test D common purslane. Type of assay: in vivo, Portulaca oleracea. Particulars: Postemergence, 0 to 100 scale.
Another assay relates to common ragweed. Put plainly: Test D common ragweed. In kind it is in vivo, Ambrosia elatior. Particulars: Postemergence, 0 to 100 scale.
For a further assay, the system named is goosegrass. Kind of assay: Test D goosegrass. In kind it is in vivo, Eleusine indica. Particulars: Postemergence, 0 to 100 scale.
A further assay has as its system purple nutsedge. Kind of assay: Test D purple nutsedge. Type of assay: in vivo, Cyperus rotundus. Particulars: Postemergence, 0 to 100 scale.
A further assay concerns itchgrass. Kind of assay: Test D itchgrass. In kind it is in vivo, Rottboellia exaltata. Particulars: Postemergence, 0 to 100 scale.
In the next assay the test system is sandbur. Put plainly: Test D sandbur. Particulars: Postemergence, 0 to 100 scale. In kind it is in vivo, Cenchrus echinatus.
[10] abbreviates: Rate 32 g/ha, 0 no injury, 100 complete control.
[11] abbreviates: Rate 64 g/ha, 0 no injury, 100 complete control.
[12] abbreviates: Rate 125 g/ha, 0 no injury, 100 complete control.
Where [13] appears, read: Rate 16 g/ha, 0 no injury, 100 complete control.

For the compound `CCN(CC)C(=O)n1oc(=O)n(-c2ccc(F)cc2)c1=O` [Compound 3], the “Plant response rating, Crabgrass” value in the assay on crabgrass (Postemergence, Rate 1000 g/ha) is on record as 0; in the assay on crabgrass (Pre-emergence, Rate 2000 g/ha) it was 3. Further, the “Plant response rating, Barnyardgrass” value with barnyardgrass (Postemergence, Rate 1000 g/ha) worked out at 6; in the assay with barnyardgrass (Pre-emergence, Rate 2000 g/ha) it was 9.
Take `Cc1ccc(-n2c(=O)on(C(=O)N(c3ccc(F)cc3F)C(C)C)c2=O)c(C)c1` [Compound 24]: the “Plant response rating, Spanishneedles” value in the assay on Spanishneedles (setting [10]) and in the assay on Spanishneedles (Rate 500 g/ha) was 0 throughout. Moreover, the “Spanishneedles plant response rating” value in the assay with Spanishneedles (setting [11]) and in the assay on Spanishneedles (setting [12]) was 0 throughout. The “Plant response rating, Dallisgrass” value in the assay with dallisgrass (setting [10]) was 30; in the assay with dallisgrass (setting [11]) it was 30; in the assay with dallisgrass (setting [12]) it was 98; in the assay with dallisgrass (Rate 250 g/ha), 98; in the assay on dallisgrass (Rate 500 g/ha), 100. The entries for the “Plant response rating, Surinam grass” value in the assay on surinam grass [1] (setting [10]), in the assay with surinam grass [1] (Rate 250 g/ha) and with surinam grass [1] (Rate 500 g/ha) were 10, 10 and 65, respectively. The “Surinam grass plant response rating” value in the assay on surinam grass [1] (setting [11]) and in the assay with surinam grass [1] (setting [12]) was 10 in each case. Further, the “Plant response rating, C. purslane” value in the assay on common pursiane [2] (setting [10]), in the assay on common pursiane [2] (setting [11]), in the assay on common pursiane [2] (setting [12]), in the assay on common pursiane [2] (Rate 250 g/ha) and with common pursiane [2] (Rate 500 g/ha) was 0 each time. In addition, the “Plant response rating, Tall Mallow” value in the assay with tall mallow [3] (setting [10]), in the assay on tall mallow [3] (Rate 250 g/ha) and in the assay on tall mallow [3] (Rate 500 g/ha) was 0 in each case. Besides, the “Tall Mallow plant response rating” value in the assay with tall mallow [3] (setting [11]) and in the assay on tall mallow [3] (setting [12]) was 0 in each case.
With `CC(C)N(C(=O)n1oc(=O)n(C(C)C)c1=O)c1ccccc1` [Compound 113], the “Plant response rating, Spanishneedles” value in the assay on Spanishneedles (setting [13]) and with Spanishneedles (setting [10]) was 0 in each case. The “Spanishneedles plant response rating” value in the assay on Spanishneedles (setting [11]) and with Spanishneedles (setting [12]) was 0 in each case. The “Plant response rating, Dallisgrass” value with dallisgrass (setting [13]) is 0; in the assay with dallisgrass (setting [10]) it was 95; with dallisgrass (setting [11]) it was 100; with dallisgrass (setting [12]), 100. Besides, the “Plant response rating, Surinam grass” value with surinam grass [1] (setting [13]) is listed as 85; with surinam grass [1] (setting [10]), 90. Moreover, the “Surinam grass plant response rating” value worked out at 98 with surinam grass [1] (setting [11]) and 100 in the assay with surinam grass [1] (setting [12]). The “Plant response rating, C. purslane” value in the assay on common pursiane [2] (setting [13]), in the assay with common pursiane [2] (setting [10]), with common pursiane [2] (setting [11]) and with common pursiane [2] (setting [12]) was 0 throughout. In addition, the “Plant response rating, Tall Mallow” value in the assay on tall mallow [3] (setting [13]) and in the assay with tall mallow [3] (setting [10]) was 0 in each case. The “Tall Mallow plant response rating” value is 0 with tall mallow [3] (setting [11]) and 30 in the assay on tall mallow [3] (setting [12]).
On to `C=CCn1c(=O)on(C(=O)N(c2ccc(F)cc2F)C2CC2)c1=O` [Compound 127], for which the “Plant response rating, Crabgrass” value with crabgrass (Postemergence, Rate 1000 g/ha) worked out at 7; in the assay on crabgrass (Pre-emergence, Rate 2000 g/ha), 8. For the same compound, the “Plant response rating, Barnyardgrass” value with barnyardgrass (Postemergence, Rate 1000 g/ha) is 6; with barnyardgrass (Pre-emergence, Rate 2000 g/ha), 9.
`CC(C)N(C(=O)n1oc(=O)n(CC2CCCO2)c1=O)c1ccc(F)cc1` (stereo not shown) [Compound 343]: the “Plant response rating, Surinam grass” value with surinam grass [4] (setting [13]) is reported as 0; in the assay on surinam grass [4] (setting [10]) it was 20; with surinam grass [4] (Rate 250 g/ha), 100. Besides, the entries for the “Surinam grass plant response rating” value in the assay with surinam grass [4] (setting [11]) and with surinam grass [4] (setting [12]) were 20 and 70, respectively. In addition, the “Green foxtail plant response rating” value with Green foxtail [5] (Rate 64 g/ha) and with Green foxtail [5] (Rate 125 g/ha) was 100 in each case. Further, the entries for the “Plant response rating, Tall Mallow” value in the assay with tall mallow [6] (setting [13]), with tall mallow [6] (setting [10]) and in the assay on tall mallow [6] (Rate 250 g/ha) were 0, 0 and 30, respectively. Also, the “Tall Mallow plant response rating” value in the assay on tall mallow [6] (setting [11]) and with tall mallow [6] (setting [12]) was 0 throughout. Besides, the “Plant response rating, Green foxtail” value in the assay with Green foxtail [7] (Rate 16 g/ha) is given as 0; in the assay on Green foxtail [7] (Rate 32 g/ha) it was 100; in the assay on Green foxtail [8] (Rate 64 g/ha), 100; in the assay on Green foxtail [8] (Rate 125 g/ha) it was 100. For the same compound, the “Plant response rating, Johnsongrass” value in the assay with Johnson grass (setting [13]) is 0; with Johnson grass (setting [10]) it was 0; with Johnson grass (setting [11]), 20; with Johnson grass (setting [12]), 20; with Johnson grass (Rate 250 g/ha) it was 100. Moreover, the “Plant response rating, Guineagrass” value with guineagrass (setting [13]) amounted to 0; in the assay with guineagrass (setting [10]), 0; in the assay on guineagrass (setting [11]), 0; in the assay with guineagrass (setting [12]) it was 50; with guineagrass (Rate 250 g/ha), 100. In addition, the “Guineagrass plant response rating” value in the assay on guineagrass (setting [11]) came out at 80. Further, the “Plant response rating, C. purslane” value in the assay on common pursiane [9] (setting [13]), in the assay on common pursiane [9] (setting [10]), in the assay with common pursiane [9] (setting [11]), in the assay on common pursiane [9] (setting [12]) and in the assay with common pursiane [9] (Rate 250 g/ha) was 0 throughout. Also, the “Plant response rating, C. ragweed” value turned out to be 0 with common ragweed (setting [13]); 0 with common ragweed (setting [10]); 0 with common ragweed (setting [11]); 60 in the assay on common ragweed (setting [12]); 90 in the assay on common ragweed (Rate 250 g/ha). Further, the “Plant response rating, Goosegrass” value amounted to 40 in the assay with goosegrass (setting [13]); 80 in the assay on goosegrass (setting [10]); 90 with goosegrass (setting [11]); 90 with goosegrass (setting [12]); 100 with goosegrass (Rate 250 g/ha). Also, the “Plant response rating, Purple nutsedge” value in the assay on purple nutsedge (setting [13]), with purple nutsedge (setting [10]) and in the assay on purple nutsedge (Rate 250 g/ha) was 0 in each case. Further, the “Purple nutsedge plant response rating” value with purple nutsedge (setting [11]) and in the assay on purple nutsedge (setting [12]) was 0 each time. Moreover, the “Plant response rating, Itchgrass” value with itchgrass (setting [13]) is listed as 0; in the assay on itchgrass (setting [10]), 0; in the assay on itchgrass (setting [11]), 20; in the assay with itchgrass (setting [12]), 20; in the assay on itchgrass (Rate 250 g/ha), 30. The “Plant response rating, Sandbur” value in the assay with sandbur (setting [13]) stood at 0; with sandbur (setting [10]), 0; with sandbur (Rate 250 g/ha), 50. The “Sandbur plant response rating” value with sandbur (setting [11]) was 0; in the assay on sandbur (setting [12]), 50.
